Assays:
Format in all cases: cell-based
[1] = tested on: A431 (EGFR-WT); assay: Cell proliferation assay (CellTiter-Glo), A431 cells; settings: Homo sapiens, A-431, 72 hrs, CTG assay, * = average of multiple measurements
Procedure, shortened: (§1)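 Cells seeded overnight, then treated in triplicate with 9 concentrations (3.16-fold dilutions; 0.1% DMSO final) for 72 h at 37 °C, 5% CO2. Viability by CellTiter-Glo luminescence, normalised to cell and medium controls; IC50 (nM) from nonlinear sigmoidal fit.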

[2] = target: Ba/F3 EGFR-D770-N771ins_SVD (Homo sapiens, UniProt P00533, DUP768-770, cells depend on it); assay: Cell proliferation assay (CellTiter-Glo), Ba/F3 EGFR-D770-N771ins_SVD cells; settings: 72 hrs, CTG assay, * = average of multiple measurements, read-out: Ba/F3 EGFR-D770-N771ins_SVD (nM), IC50 of cell proliferation
Sequence of Ba/F3 EGFR-D770-N771ins_SVD (P00533 with tags, fused parts or gaps DUP768-770): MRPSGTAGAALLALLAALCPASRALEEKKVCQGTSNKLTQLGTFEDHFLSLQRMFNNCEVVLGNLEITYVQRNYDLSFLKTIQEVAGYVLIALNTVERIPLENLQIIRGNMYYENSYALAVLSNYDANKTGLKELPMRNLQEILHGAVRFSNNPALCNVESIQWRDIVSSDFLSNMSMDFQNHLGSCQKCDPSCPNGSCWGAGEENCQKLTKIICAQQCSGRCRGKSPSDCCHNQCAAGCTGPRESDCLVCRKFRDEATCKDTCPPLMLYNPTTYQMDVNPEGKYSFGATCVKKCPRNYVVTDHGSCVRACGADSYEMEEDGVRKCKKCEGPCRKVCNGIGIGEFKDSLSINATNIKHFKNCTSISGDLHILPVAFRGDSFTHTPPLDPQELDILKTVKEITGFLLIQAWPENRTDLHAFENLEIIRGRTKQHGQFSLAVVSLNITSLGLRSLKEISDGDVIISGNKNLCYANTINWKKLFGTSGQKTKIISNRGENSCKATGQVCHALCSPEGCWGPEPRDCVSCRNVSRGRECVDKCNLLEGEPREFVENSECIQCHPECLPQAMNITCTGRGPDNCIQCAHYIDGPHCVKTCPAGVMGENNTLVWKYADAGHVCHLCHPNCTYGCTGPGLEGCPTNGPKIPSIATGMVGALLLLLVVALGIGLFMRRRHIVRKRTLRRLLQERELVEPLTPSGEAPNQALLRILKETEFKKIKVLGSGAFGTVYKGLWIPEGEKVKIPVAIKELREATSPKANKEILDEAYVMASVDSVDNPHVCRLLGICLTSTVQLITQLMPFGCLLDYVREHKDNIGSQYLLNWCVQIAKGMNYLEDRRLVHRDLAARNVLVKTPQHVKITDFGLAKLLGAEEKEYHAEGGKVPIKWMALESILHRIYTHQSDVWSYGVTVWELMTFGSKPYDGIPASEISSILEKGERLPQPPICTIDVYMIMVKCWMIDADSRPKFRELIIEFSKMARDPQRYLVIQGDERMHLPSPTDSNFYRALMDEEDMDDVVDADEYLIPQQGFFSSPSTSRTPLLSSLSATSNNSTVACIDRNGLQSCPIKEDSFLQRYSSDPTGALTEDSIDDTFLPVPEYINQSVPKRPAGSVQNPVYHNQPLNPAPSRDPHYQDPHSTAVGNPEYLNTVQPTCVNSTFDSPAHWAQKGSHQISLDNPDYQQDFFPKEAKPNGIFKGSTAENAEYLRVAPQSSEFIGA
Procedure, shortened: as §1

[3] = target: Ba/F3 EGFR-V769_D770insASV (Homo sapiens, UniProt P00533, DUP767-769, cells depend on it); assay: Cell proliferation assay (CellTiter-Glo), Ba/F3 EGFR-V769_D770insASV cells; settings: 72 hrs, CTG assay, * = average of multiple measurements, read-out: Ba/F3 EGFR-V769_D770insASV (nM), IC50 of cell proliferation
Sequence of Ba/F3 EGFR-V769_D770insASV (P00533 with tags, fused parts or gaps DUP767-769): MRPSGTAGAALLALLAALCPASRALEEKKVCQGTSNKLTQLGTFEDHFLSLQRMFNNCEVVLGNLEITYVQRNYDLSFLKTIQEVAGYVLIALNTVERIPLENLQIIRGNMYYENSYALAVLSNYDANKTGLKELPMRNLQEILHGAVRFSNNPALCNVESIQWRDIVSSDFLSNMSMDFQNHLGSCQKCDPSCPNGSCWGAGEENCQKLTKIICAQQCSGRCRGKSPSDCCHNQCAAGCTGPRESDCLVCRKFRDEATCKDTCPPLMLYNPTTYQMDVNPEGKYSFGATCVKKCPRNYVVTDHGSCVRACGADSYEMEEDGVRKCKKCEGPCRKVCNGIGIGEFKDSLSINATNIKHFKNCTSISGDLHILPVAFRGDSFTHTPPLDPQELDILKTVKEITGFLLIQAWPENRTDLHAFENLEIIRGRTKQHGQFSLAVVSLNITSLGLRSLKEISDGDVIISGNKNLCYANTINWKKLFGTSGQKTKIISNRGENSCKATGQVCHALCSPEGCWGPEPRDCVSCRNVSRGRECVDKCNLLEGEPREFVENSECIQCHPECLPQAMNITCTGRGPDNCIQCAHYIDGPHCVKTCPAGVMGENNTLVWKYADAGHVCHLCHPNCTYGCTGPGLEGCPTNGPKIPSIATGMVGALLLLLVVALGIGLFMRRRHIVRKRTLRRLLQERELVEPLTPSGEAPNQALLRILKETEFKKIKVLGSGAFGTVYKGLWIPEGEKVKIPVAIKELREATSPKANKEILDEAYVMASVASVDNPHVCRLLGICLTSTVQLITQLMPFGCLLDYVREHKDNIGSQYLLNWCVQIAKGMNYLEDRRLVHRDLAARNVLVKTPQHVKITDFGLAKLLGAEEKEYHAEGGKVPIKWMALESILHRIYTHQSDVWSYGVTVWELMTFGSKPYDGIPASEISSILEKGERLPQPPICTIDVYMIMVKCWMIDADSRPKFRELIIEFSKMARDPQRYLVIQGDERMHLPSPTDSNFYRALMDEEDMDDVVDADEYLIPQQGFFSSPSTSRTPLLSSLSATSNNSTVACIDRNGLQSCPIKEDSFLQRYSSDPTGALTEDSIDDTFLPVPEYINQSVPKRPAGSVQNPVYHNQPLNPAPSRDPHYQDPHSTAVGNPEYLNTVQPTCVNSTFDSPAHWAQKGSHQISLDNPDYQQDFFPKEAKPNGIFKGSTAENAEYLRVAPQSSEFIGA
Procedure, shortened: as §1

IC50 [1] [nM]	GI50 [2] [nM]	GI50 [3] [nM]	SMILES
673	6.5	17.1	C#Cc1ccc2c(n1)C(C)(C)CN2c1ccnc(Nc2cc(NC(=O)C=C)c(N(C)CCN(C)C)cc2OC(F)F)n1 [Example 68, N-(4-(difluoromethoxy)-2-((2-(dimethylamino)ethyl)(methyl)ami-no)-5-((4-(5-ethynyl-3,3-dimeth-yl-2,3-dihydro-1H-pyrrolo[3,2-b]pyridin-1-yl)pyrimidin-2-yl)amino)phenyl)acrylamide]
898	60.2	69.8	C=CC(=O)Nc1cc(Nc2cc(N3CC(C)(C)c4ncccc43)ccn2)c(OC)cc1N(C)CCN(C)C [Example 1, N-(5-((4-(3,3-dimethyl-2,3-dihydro-1H-pyrrolo[3,2-b]pyridin-1-yl)pyridin-2-yl)amino)-2-((2-(dimethylamino)ethyl)(methyl)amino)-4-methoxyphenyl)acrylamide]
1070	60.4	97.9	C=CC(=O)Nc1cc(Nc2cc(N3CC(C)(C)c4nc(C)ccc43)ccn2)c(OC)cc1N(C)CCN(C)C [Example 2, N-(2-((2-(dimethylamino)ethyl) (methyl)amino)-4-methoxy-5-((4-(3,3,5-trimethyl-2,3-dihydro-1H-pyrrolo[3,2-b]pyridin-1-yl)pyridin-2-yl)amino)phenyl)acrylamide]
582	21.7	36.3	C=CC(=O)Nc1cc(Nc2nccc(N3CC4(CCC4)c4ncccc43)n2)c(OC(F)F)cc1N(C)CCN(C)C [Example 62, N-(4-(difluoromethoxy)-2-((2-(dimethylamino)ethyl)(methyl)amino)-5-((4-(spiro[cyclobutane-1,3′-pyrrolo[3,2-b]pyridin]-1′(2′H)-yl)pyrimidin-2-yl)amino)phenyl) acrylamide]
378	12.9	5.6	C=CC(=O)Nc1cc(Nc2nccc(N3CC(C)(C)c4nc(C)ccc43)n2)c(OC(F)F)cc1N(C)CCN(C)C [Example 47, N-(4-(difluoromethoxy)-2-((2-(dimethylamino)ethyl)(methyl)amino)-5-((4-(3,3,5-trimethyl-2,3-dihydro-1H-pyrrolo[3,2-b]pyridin-1-yl)pyrimidin-2-yl)amino)phenyl) acrylamide]
312	23.8	47	C=CC(=O)Nc1cc(Nc2ncnc(N3CC4(CCC4)c4ncccc43)n2)c(OC)cc1N(C)CCN(C)C [Example 55, N-(2-((2-(dimethylamino)ethyl) (methyl)amino)-4-methoxy-5-((4-(spiro[cyclobutane-1,3′-pyrrolo[3,2-b]pyridin]-1′(2′H)-yl)-1,3,5-triazin-2-yl)amino)phenyl)acrylamide]
121	15.6	58.2	C=CC(=O)Nc1cc(Nc2ncnc(N3CC(C)(C)c4nc(Cl)ccc43)n2)c(OC)cc1N(C)CCN(C)C [Example 22, N-(5-((4-(5-chloro-3,3-dimethyl-2,3-dihydro-1H-pyrrolo[3,2-b]pyridin-1-yl)-1,3,5-triazin-2-yl)amino)-2-((2-(dimethylamino)ethyl) (methyl)amino)-4-methoxyphenyl) acrylamide]
42.2	38.1	65.3	C=CC(=O)Nc1cc(Nc2ncnc(N3CC(C)(C)c4nc(C)c(C)cc43)n2)c(OCC)cc1N(C)CCN(C)C [Example 30, N-(2-((2-(dimethylamino)ethyl) (methyl)amino)-4-ethoxy-5-((4-(3,3,5,6-tetramethyl-2,3-dihydro-1H-pyrrolo[3,2-b]pyridin-1-yl)-1,3,5-triazin-2-yl)amino)phenyl)acrylamide]
108	20.1	35	C=CC(=O)Nc1cc(Nc2ncnc(N3CC(C)(C)c4nc(C)c(C)cc43)n2)c(OC(C)C)cc1N(C)CCN(C)C [Example 44, N-(2-((2-(dimethylamino)ethyl) (methyl)amino)-4-isopropoxy-5-((4-(3,3,5,6-tetramethyl-2,3-dihydro-1H-pyrrolo[3,2-b]pyridin-1-yl)-1,3,5-triazin-2-yl)amino)phenyl)acrylamide]

From patent US20240109885A1, “2,3-DIHYDRO-1H-PYRROLO[3,2-B]PYRIDINE DERIVATIVE, PREPARATION METHOD THEREFOR, AND APPLICATION THEREOF” (Abbisko Therapeutics Co., Ltd, priority 2020, published 2024)
